Earlier results on two molecules are cited in patent US20210022978A1, “BUMETANIDE DERIVATIVES FOR THE THERAPY OF HYPERHIDROSIS” (ZILENTIN AG, priority 2018, published 2021).

In data set [1] the test system is conditioned anxiety. The conditions noted are these: rats, compared with the vehicle alone.
In data set [2] the target is T1, NKCC in sweat glands (Homo sapiens, UniProt P55011).
T1 construct: host or cells: sweat glands (in vivo)
T1 sequence (P55011 1-1212): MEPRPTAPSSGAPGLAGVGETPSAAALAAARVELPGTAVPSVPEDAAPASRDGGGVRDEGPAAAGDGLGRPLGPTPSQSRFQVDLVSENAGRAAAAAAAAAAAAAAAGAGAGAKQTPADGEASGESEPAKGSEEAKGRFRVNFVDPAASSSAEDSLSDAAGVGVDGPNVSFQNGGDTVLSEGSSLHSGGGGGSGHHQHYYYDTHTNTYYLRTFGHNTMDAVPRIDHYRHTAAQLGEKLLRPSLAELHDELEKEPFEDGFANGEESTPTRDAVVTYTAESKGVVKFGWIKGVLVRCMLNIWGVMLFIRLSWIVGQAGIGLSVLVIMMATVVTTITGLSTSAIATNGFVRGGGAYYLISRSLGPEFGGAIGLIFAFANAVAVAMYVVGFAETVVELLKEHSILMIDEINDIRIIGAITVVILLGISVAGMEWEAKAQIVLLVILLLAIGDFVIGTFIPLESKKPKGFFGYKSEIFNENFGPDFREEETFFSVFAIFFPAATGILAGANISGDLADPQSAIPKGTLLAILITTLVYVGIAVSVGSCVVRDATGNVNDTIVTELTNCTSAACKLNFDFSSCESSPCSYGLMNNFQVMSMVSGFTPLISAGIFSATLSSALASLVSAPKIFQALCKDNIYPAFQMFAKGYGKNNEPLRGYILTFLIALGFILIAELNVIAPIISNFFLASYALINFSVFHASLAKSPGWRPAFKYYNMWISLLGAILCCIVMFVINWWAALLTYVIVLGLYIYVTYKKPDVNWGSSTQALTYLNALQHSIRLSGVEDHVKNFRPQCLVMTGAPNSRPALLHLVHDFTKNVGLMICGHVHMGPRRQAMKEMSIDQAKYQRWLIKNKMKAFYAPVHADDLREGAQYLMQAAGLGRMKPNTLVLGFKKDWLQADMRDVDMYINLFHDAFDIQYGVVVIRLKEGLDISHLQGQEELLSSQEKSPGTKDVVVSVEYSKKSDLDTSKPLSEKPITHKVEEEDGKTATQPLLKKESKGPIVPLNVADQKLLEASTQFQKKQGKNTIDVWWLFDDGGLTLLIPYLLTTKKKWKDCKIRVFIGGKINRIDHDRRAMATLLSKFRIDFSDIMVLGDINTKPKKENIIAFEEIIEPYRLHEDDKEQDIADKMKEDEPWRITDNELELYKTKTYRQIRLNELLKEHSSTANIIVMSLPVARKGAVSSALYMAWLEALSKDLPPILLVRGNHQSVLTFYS

The subject of data set [3] is rAceMIF.

As to `CCCCNc1cc(C(=O)O)cc(S(N)(=O)=O)c1Oc1ccccc1` [bumetanide, 3-(butylamino)-4-phenoxy-5-sulfamoylbenzoic acid], the “percentage of test period freezing” value in data set [1] is given as “significantly smaller percentage of test period freezing”. The “effectiveness in treating hyperhidrosis” value in data set [2] is “partly effective”. For the molecule `NS(=O)(=O)c1cc(C(=O)O)c(NCc2ccco2)cc1Cl` [furosemide], the “inhibition of rAceMIF tautomerase activity” value in data set [3] is “submicromolar”.
